Assays:
[1] = biological target: T1, Protein deacetylase HDAC6 (Mus musculus) (UniProt Q9Z2V5); test: Inhibition of HDAC6 in mouse Neuro2a cells assessed as fold increase in ratio of acetylated alpha-tubulin to alpha tubulin at 1 uM incubated for overnight by Western blot analysis; assay type: cell-based; details: time 12.0 hrs
T1 sequence (whole entry): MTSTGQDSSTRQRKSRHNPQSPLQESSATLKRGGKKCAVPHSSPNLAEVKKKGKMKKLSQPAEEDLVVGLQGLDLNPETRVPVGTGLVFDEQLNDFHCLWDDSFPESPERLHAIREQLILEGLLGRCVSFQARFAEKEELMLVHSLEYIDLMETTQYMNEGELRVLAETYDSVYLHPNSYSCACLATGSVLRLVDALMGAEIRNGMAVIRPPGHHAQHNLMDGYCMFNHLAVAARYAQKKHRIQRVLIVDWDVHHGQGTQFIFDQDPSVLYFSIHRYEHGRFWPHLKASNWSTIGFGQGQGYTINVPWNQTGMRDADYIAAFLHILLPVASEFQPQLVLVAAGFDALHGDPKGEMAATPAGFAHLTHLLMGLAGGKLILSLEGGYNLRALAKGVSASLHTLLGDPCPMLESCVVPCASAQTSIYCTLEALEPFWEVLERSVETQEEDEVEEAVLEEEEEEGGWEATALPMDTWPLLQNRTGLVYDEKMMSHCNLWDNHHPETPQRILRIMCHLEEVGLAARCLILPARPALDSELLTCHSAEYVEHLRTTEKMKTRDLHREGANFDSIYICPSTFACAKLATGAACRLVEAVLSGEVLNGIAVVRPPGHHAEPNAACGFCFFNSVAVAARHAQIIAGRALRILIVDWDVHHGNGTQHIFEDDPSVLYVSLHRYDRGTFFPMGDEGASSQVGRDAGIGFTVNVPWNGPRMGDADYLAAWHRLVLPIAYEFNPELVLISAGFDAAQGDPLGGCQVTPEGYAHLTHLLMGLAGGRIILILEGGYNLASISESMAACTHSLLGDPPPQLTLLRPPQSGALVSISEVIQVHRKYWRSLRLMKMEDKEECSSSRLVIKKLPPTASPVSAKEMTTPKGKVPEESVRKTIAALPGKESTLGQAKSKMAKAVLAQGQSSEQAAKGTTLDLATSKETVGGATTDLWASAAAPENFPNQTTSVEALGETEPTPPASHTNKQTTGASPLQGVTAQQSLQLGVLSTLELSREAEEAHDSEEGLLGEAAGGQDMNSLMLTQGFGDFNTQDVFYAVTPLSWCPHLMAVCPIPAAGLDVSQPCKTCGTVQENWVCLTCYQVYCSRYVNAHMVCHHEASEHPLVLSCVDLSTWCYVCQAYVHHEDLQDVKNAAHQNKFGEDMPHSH

[2] = biological target: T1, Protein deacetylase HDAC6 (Mus musculus); test: Inhibition of HDAC6 in mouse Neuro2a cells assessed as fold increase in ratio of acetylated alpha-tubulin to alpha tubulin at 0.01 uM incubated for overnight by Western blot analysis; assay type: cell-based; details: time 12.0 hrs
[3] = Stability in CD1 mouse pooled liver microsomes assessed as parent compound remaining measured at 60 mins in presence of NADPH by LC-MS/MS analysis; assay type: ADME, Microsome; details: for remaining at 1 h: CD1, mouse, pooled liver microsomes, read-out: Stabilty
[4] = Half life in CD1 mouse pooled liver microsomes assessed as parent compound remaining measured up to 60 mins in presence of NADPH by LC-MS/MS analysis; assay type: ADME, Microsome; details: for half-life: CD1, mouse, pooled liver microsomes
[5] = Stability in human pooled liver microsomes assessed as parent compound remaining measured at 60 mins in presence of NADPH by LC-MS/MS analysis; assay type: ADME, Microsome; details: pooled liver microsomes, read-out: Stabilty
[6] = Half life in human pooled liver microsomes assessed as parent compound remaining measured up to 60 mins in presence of NADPH by LC-MS/MS analysis; assay type: ADME, Microsome; details: pooled liver microsomes
[7] = biological target: T2, Protein deacetylase HDAC6 (Homo sapiens, UniProt Q9UBN7)
T2 sequence (Q9UBN7 whole entry): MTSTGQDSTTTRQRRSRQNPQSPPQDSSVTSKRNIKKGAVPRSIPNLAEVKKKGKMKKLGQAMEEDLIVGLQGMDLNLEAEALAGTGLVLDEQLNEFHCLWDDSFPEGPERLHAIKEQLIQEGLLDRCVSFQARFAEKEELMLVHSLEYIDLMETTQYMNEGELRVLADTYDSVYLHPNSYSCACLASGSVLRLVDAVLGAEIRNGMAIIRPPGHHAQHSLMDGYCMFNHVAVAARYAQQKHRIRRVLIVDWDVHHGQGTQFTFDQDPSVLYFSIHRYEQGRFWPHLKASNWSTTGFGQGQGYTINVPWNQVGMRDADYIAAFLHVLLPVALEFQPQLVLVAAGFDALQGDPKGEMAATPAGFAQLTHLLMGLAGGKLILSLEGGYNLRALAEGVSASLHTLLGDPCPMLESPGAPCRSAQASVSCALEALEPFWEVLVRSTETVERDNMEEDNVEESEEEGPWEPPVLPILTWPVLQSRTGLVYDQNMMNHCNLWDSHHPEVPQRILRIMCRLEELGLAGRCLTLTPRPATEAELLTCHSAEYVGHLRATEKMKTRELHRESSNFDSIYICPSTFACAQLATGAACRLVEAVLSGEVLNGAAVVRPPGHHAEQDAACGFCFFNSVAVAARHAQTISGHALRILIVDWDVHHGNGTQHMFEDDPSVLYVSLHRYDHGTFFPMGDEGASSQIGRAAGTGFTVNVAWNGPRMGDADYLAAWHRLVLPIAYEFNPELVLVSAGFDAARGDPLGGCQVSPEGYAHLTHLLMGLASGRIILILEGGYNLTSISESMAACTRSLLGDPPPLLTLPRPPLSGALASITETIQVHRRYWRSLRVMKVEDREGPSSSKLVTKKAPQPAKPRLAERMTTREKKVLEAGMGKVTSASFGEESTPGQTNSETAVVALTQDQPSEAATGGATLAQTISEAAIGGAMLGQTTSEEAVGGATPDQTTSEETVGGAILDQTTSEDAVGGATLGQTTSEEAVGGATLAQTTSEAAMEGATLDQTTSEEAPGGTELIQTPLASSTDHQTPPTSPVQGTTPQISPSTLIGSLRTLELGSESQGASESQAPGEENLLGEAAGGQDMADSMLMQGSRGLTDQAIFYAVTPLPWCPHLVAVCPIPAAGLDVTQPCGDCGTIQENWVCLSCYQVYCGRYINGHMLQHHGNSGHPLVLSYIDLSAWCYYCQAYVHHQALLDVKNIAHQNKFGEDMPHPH
Description: Inhibition of recombinant human HDAC6 using Ac-GAK(Ac)-AMC as substrate preincubated for 10 mins followed by substrate addition and measured after 30 mins by fluorescence-based assay

Histone deacetylase 1 [8] = biological target: T3, Histone deacetylase 1 (Homo sapiens, UniProt Q13547)
Target sequence in this assay (Q13547 whole entry): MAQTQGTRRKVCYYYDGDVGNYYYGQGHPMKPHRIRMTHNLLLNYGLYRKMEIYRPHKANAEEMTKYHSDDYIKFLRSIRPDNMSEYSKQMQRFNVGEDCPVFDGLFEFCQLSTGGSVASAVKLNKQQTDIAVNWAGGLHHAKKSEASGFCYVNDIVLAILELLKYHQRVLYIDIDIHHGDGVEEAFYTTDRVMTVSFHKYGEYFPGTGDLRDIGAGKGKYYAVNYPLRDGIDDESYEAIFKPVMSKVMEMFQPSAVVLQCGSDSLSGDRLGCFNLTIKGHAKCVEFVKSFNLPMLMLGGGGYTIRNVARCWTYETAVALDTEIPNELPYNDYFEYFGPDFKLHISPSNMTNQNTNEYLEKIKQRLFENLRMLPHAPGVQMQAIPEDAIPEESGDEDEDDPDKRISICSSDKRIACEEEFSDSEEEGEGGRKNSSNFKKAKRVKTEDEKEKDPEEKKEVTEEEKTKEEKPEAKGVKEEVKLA
Description: Inhibition of recombinant human HDAC1 using Ac-GAK(Ac)-AMC as substrate preincubated for 10 mins followed by substrate addition and measured after 30 mins by fluorescence-based assay

Histone deacetylase 8 = biological target: T4, Histone deacetylase 8 (Homo sapiens, UniProt Q9BY41)
T4 sequence (Q9BY41 whole entry): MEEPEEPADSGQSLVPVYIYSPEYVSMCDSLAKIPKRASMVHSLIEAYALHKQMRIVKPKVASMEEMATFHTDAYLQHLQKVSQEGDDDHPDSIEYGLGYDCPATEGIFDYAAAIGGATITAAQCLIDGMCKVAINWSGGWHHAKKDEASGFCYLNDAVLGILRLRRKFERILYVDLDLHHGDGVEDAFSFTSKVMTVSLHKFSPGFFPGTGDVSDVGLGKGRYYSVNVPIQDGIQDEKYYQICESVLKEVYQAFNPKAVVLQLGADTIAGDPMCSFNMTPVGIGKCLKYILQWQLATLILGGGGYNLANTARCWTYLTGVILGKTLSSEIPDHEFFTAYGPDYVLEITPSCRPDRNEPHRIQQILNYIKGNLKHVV
Description: Inhibition of recombinant human HDAC8 using Boc-Lys(TFA)-AMC as substrate preincubated for 10 mins followed by substrate addition and measured after 30 mins by fluorescence-based assay

[9] = biological target: Protein deacetylase HDAC6, Homo sapiens (UniProt Q9UBN7); test: biochemical
Histone deacetylase 1 [10] = biological target: T3, Histone deacetylase 1; test: biochemical
Target sequence in this assay (Q13547 whole entry, looked up): as the sequence (Q13547 whole entry) above

Compound | fold change (FC) [1] | fold change (FC) [2] | Stabilty ([3]; mouse, microsomes, 1 h) | t1/2 ([4]; mouse, microsomes, 1 h) | remaining at 1 h [5] | half-life [6] | IC50 [7] | IC50 (Histone deacetylase 1 [8]) | IC50 (Histone deacetylase 8) | remaining at 1 h [3] | half-life [4] | IC50 [9] | IC50 (Histone deacetylase 1 [10]) | Ratio IC50 (Homo sapiens)
O=C(NO)c1ccc(CN2C(=O)CCc3cc(Cl)ccc32)cc1 | 1.51 | 0.93 | 77.7% | 29.05 h | 92.6% | 9.62 h | 2.9 nM | 276 nM | 2080 nM | – | – | – | – | –
CC1(C)CCc2cc(Cl)ccc2N1Cc1ccc(C(=O)NO)cc1 | – | – | – | – | – | – | – | – | – | 20.3% | 0.423 h | 328 nM | 19600 nM | 60
CCCc1ccc2c(c1)CCC(=O)N2Cc1ccc(C(=O)NO)cc1 | – | – | – | – | – | – | 12 nM | 306 nM | 2680 nM | – | – | – | – | –
CC(c1ccc(C(=O)NO)cc1)N1CCCc2cc(Cl)ccc21 (stereo unspecified) | – | – | – | – | – | – | – | – | – | – | – | 383 nM | 8430 nM | 22
O=C(NO)c1ccc(CN2C(=O)CCc3cc(C4CC4)ccc32)cc1 | – | – | – | – | – | – | 2.7 nM | 117 nM | 1500 nM | – | – | – | – | –
CC1(C)CCN(Cc2ccc(C(=O)NO)cc2)c2ccc(F)cc21 | – | – | – | – | – | – | – | – | – | – | – | 45.1 nM | 21100 nM | 468
O=C(NO)c1ccc(CN2CCCCc3cc(-c4cc[nH]n4)ccc32)cc1 | 1.78 | 0.95 | – | – | 15% | 0.37 h | 17 nM | 1080 nM | 2820 nM | 10.1% | 0.305 h | – | – | –
CC1(C)CCN(Cc2ccc(C(=O)NO)cc2)c2ccc(Cl)cc21 | – | – | – | – | – | – | – | – | – | 6.8% | 0.265 h | 37.8 nM | 19600 nM | 519
CN1CCc2c(c3ccccc3n2Cc2ccc(C(=O)NO)cc2)C1 | 1.11 | 0.91 | – | – | – | – | – | – | – | – | – | – | – | –
O=C(NO)c1ccc(CN2C(=O)CCc3cc(Br)ccc32)cc1 | – | – | – | – | – | – | 0.9 nM | 107 nM | 743 nM | – | – | – | – | –
O=C(NO)c1ccc(C(=O)N2CCCc3cc(Cl)ccc32)cc1 | – | – | – | – | – | – | – | – | – | – | – | 961 nM | 10500 nM | 11
CC1(C)CCc2cc(F)ccc2N1Cc1ccc(C(=O)NO)cc1 | – | – | – | – | – | – | – | – | – | – | – | 161 nM | 14100 nM | 88

Second part, led by results:

fold change (FC) [1] | fold change (FC) [2] | Stabilty ([3]; mouse, microsomes, 1 h) | t1/2 ([4]; mouse, microsomes, 1 h) | remaining at 1 h [5] | half-life [6] | IC50 [7] | IC50 (Histone deacetylase 1 [8]) | IC50 (Histone deacetylase 8) | remaining at 1 h [3] | half-life [4] | IC50 [9] | IC50 (Histone deacetylase 1 [10]) | Compound | Ratio IC50 (Homo sapiens)
1.53 | 1.14 | – | – | – | – | – | – | – | – | – | 3.4 nM | 1870 nM | O=C(NO)c1ccc(CN2CCCc3cc(F)c(Cl)cc32)cc1 | 550
0.55 | 0.89 | – | – | 83.9% | 35.5 h | 1 nM | 1900 nM | 8640 nM | 34.7% | 1.01 h | – | – | O=C(NO)c1ccc(CN2CCCCc3cc(Cl)ccc32)cc1 | –
1.19 | 2.4 | – | – | – | – | 2.4 nM | 150 nM | 1060 nM | – | – | – | – | NC(=O)c1ccc2c(c1)CCCCN2Cc1ccc(C(=O)NO)cc1 | –
– | – | – | – | – | – | 9 nM | 1590 nM | 4360 nM | – | – | – | – | O=C(NO)c1ccc(CN2CCCCc3cc(Br)ccc32)cc1 | –
2.14 | 2.65 | – | – | – | – | 0.3 nM | 184 nM | 792 nM | – | – | – | – | O=C(NO)c1ccc(CN2CCCc3cc(-c4cc[nH]n4)ccc32)cc1 | –
1.38 | 1.21 | – | – | – | – | – | – | – | 17.2% | 0.413 h | 12.4 nM | 21200 nM | O=C(NO)c1ccc(CN2CCCc3cc(Cl)ccc32)c(F)c1 | 1710
– | – | – | – | – | – | 1.3 nM | 141 nM | 1490 nM | – | – | – | – | N#Cc1ccc2c(c1)CCCN2Cc1ccc(C(=O)NO)cc1 | –
1.5 | 1.16 | – | – | – | – | – | – | – | 19.1% | 0.428 h | 4.8 nM | 3220 nM | O=C(NO)c1ccc(CN2CCCc3cc(Cl)c(F)cc32)cc1 | 670
1.73 | 2.81 | – | – | 95.3% | 12 h | 0.8 nM | 126 nM | 1170 nM | 68.1% | 1.83 h | – | – | O=C(NO)c1ccc(CN2C(=O)CCCc3cc(Cl)ccc32)cc1 | –
0.78 | 0.98 | – | – | 83.9% | 4.03 h | 5 nM | 1320 nM | 5610 nM | 34.7% | 0.66 h | – | – | O=C(NO)c1ccc(CN2CCCCc3ccccc32)cc1 | –
1.54 | 1.38 | – | – | – | – | – | – | – | – | – | 3.6 nM | 2620 nM | O=C(NO)c1ccc(CN2CCCc3cc(Cl)c(Cl)cc32)cc1 | 728
0.98 | – | – | – | 84.9% | 4.21 h | 4.6 nM | 248 nM | 2220 nM | 80.8% | 3.26 h | – | – | N#Cc1ccc2c(c1)CCCCN2Cc1ccc(C(=O)NO)cc1 | –
